From the NIST ThermoML archive (doi:10.1016/j.fluid.2010.01.002)

Columns and labels:
[1] = mn = molality of the nth substance listed, in mol/kg; conditions: 101 kPa, Liquid, Vibrating tube method
[2] = 101.33 kPa, Liquid; for viscosity: Capillary tube (Ostwald / Ubbelohde) method; for mass density: Vibrating tube method
[3] = refractive index (Na D-line) (dimensionless); conditions: 101.33 kPa, Liquid, Standard Abbe refractometry

COS(=O)(=O)[O-].Cn1cc[n+](C)c1 [1,3-dimethylimidazolium methylsulfate] + CN(C)C=O
mass density [kg/m3], [1]
Conditions | 298.15 K | 308.15 K | 318.15 K | 328.15 K
m1 = 0.0143 | 945.09 | 935.57 | 925.94 | 916.21
m1 = 0.0192 | 945.45 | 935.93 | 926.32 | 916.62
m1 = 0.0305 | 946.29 | 936.8 | 927.22 | 917.63
m1 = 0.0455 | 947.35 | 937.9 | 928.37 | 918.8
m1 = 0.06 | 948.34 | 938.95 | 929.46 | 919.9
m1 = 0.0821 | 949.86 | 940.49 | 930.98 | 921.44
m1 = 0.1125 | 951.98 | 942.64 | 933.15 | 923.55
m1 = 0.1679 | 955.78 | 946.48 | 937.03 | 927.44
m1 = 0.2459 | 961 | 951.8 | 942.42 | 932.69
m1 = 0.3069 | 964.96 | 955.78 | 946.45 | 936.8
m1 = 0.6259 | 984.18 | 975.15 | 965.75 | 956.63

C[S+](C)[O-] [dimethyl sulfoxide]
Conditions | mass density, [2] [kg/m3] | refractive index, [3] | viscosity, [2] [mPa·s]
298.15 K | 1095.27 | 1.4737 | 1.979
308.15 K | 1085.18 | 1.4701 | 1.622
318.15 K | 1075.24 | 1.4668 | 1.381
328.15 K | 1065.16 | 1.462 | 1.207

CN(C)C=O [dimethylformamide]
Conditions | mass density, [2] [kg/m3] | refractive index, [3] | viscosity, [2] [mPa·s]
298.15 K | 943.8 | 1.4267 | 0.8605
308.15 K | 934.45 | 1.4225 | 0.7712
318.15 K | 924.75 | 1.418 | 0.6975
328.15 K | 914.9 | 1.4144 | 0.6374

CO [methanol]
Conditions | mass density, 298.15 K [kg/m3] | mass density, 308.15 K [kg/m3] | mass density, 318.15 K [kg/m3] | mass density, 328.15 K [kg/m3] | refractive index, 298.15 K | refractive index, 308.15 K | refractive index, 318.15 K | refractive index, 328.15 K | viscosity, 318.15 K [mPa·s] | viscosity, 328.15 K [mPa·s]
[2] | 786.53 | 777.09 | 767.48 | 757.75 | – | – | – | – | 0.5962 | 0.4792
[3] | – | – | – | – | 1.3272 | 1.3232 | 1.3185 | 1.3158 | – | –

COS(=O)(=O)[O-].Cn1cc[n+](C)c1 [1,3-dimethylimidazolium methylsulfate]
Conditions | mass density, [2] [kg/m3] | refractive index, [3] | viscosity, [2] [mPa·s]
298.15 K | 1341.52 | 1.481 | 72.16
308.15 K | 1334.05 | 1.4782 | 54.42
318.15 K | 1324.8 | 1.475 | 31.75
328.15 K | 1320.61 | 1.4732 | 22.75

O [water]
Conditions | mass density, 328.15 K [kg/m3] | refractive index, 298.15 K | refractive index, 308.15 K | refractive index, 318.15 K | refractive index, 328.15 K | viscosity, 298.15 K [mPa·s] | viscosity, 308.15 K [mPa·s] | viscosity, 318.15 K [mPa·s] | viscosity, 328.15 K [mPa·s]
[2] | 985.62 | – | – | – | – | 0.8949 | 0.7207 | 0.5962 | 0.5042
[3] | – | 1.3325 | 1.3313 | 1.3298 | 1.3282 | – | – | – | –

CC#N [acetonitrile]
Conditions | mass density, [2] [kg/m3] | refractive index, [3] | viscosity, [2] [mPa·s]
298.15 K | 776.59 | 1.3411 | 0.3431
308.15 K | 765.76 | 1.3365 | 0.3171
318.15 K | 754.67 | 1.3327 | 0.2918
328.15 K | 743.6 | 1.3259 | 0.268

COS(=O)(=O)[O-].Cn1cc[n+](C)c1 [1,3-dimethylimidazolium methylsulfate] + CO
mass density [kg/m3], [1]
Conditions | 298.15 K | 308.15 K | 318.15 K | 328.15 K
m1 = 0.0108 | 787.65 | 778.14 | 768.55 | 758.82
m1 = 0.0199 | 788.47 | 778.98 | 769.42 | 759.7
m1 = 0.0341 | 789.69 | 780.24 | 770.71 | 761.02
m1 = 0.0419 | 790.3 | 780.9 | 771.38 | 761.68
m1 = 0.0531 | 791.11 | 781.85 | 772.32 | 762.63
m1 = 0.0711 | 792.35 | 783.26 | 773.6 | 764.11
m1 = 0.0929 | 794.09 | 784.9 | 775.34 | 765.65
m1 = 0.1212 | 796.29 | 787.16 | 777.61 | 767.99
m1 = 0.1679 | 799.9 | 790.82 | 781.31 | 771.8
m1 = 0.2084 | 802.98 | 793.97 | 784.46 | 775.01
m1 = 0.2504 | 806.12 | 797.15 | 787.7 | 778.32
m1 = 0.2973 | 809.59 | 800.65 | 791.16 | 781.85
m1 = 0.3949 | 816.69 | 807.86 | 798.36 | 789.21
m1 = 0.4965 | 823.95 | 815.03 | 805.55 | 796.68
m1 = 0.5976 | 831 | 822.1 | 812.65 | 803.73
m1 = 0.7303 | 839.93 | 830.93 | 821.45 | 812.4
m1 = 0.9907 | 856.57 | 847.45 | 838.09 | 828.74

COS(=O)(=O)[O-].Cn1cc[n+](C)c1 [1,3-dimethylimidazolium methylsulfate] + CC#N
mass density [kg/m3], [1]
Conditions | 298.15 K | 308.15 K | 318.15 K | 328.15 K
m1 = 0.0154 | 778.02 | 767.2 | 756.08 | 745.07
m1 = 0.0262 | 778.92 | 768.15 | 757.02 | 746.08
m1 = 0.0367 | 779.78 | 769.04 | 757.94 | 746.91
m1 = 0.0442 | 780.39 | 769.64 | 758.56 | 747.53
m1 = 0.0552 | 781.25 | 770.6 | 759.47 | 748.49
m1 = 0.0697 | 782.39 | 771.79 | 760.65 | 749.74
m1 = 0.1092 | 785.54 | 775.06 | 763.89 | 753.13
m1 = 0.1516 | 788.85 | 778.45 | 767.29 | 756.65
m1 = 0.2159 | 793.88 | 783.51 | 772.5 | 761.83
m1 = 0.2981 | 799.99 | 789.92 | 779.03 | 768.5
m1 = 0.4347 | 809.98 | 799.82 | 788.98 | 778.24
m1 = 0.5442 | 817.8 | 807.73 | 797.07 | 786.34
m1 = 0.8609 | 839.07 | 828.64 | 818.22 | 808.33

COS(=O)(=O)[O-].Cn1cc[n+](C)c1 [1,3-dimethylimidazolium methylsulfate] + C[S+](C)[O-]
mass density [kg/m3], [1]
Conditions | 298.15 K | 308.15 K | 318.15 K | 328.15 K
m1 = 0.0129 | 1095.83 | 1085.98 | 1075.96 | 1065.92
m1 = 0.0148 | 1095.95 | 1086.09 | 1076.07 | 1066.03
m1 = 0.0289 | 1096.8 | 1086.89 | 1076.88 | 1066.84
m1 = 0.0374 | 1097.18 | 1087.35 | 1077.34 | 1067.32
m1 = 0.0433 | 1097.5 | 1087.65 | 1077.66 | 1067.64
m1 = 0.0517 | 1097.95 | 1088.1 | 1078.12 | 1068.11
m1 = 0.0632 | 1098.58 | 1088.71 | 1078.72 | 1068.74
m1 = 0.0897 | 1100 | 1090.12 | 1080.15 | 1070.19
m1 = 0.1221 | 1101.67 | 1091.81 | 1081.86 | 1071.93
m1 = 0.1501 | 1103.05 | 1093.21 | 1083.28 | 1073.4
m1 = 0.1878 | 1104.92 | 1095.1 | 1085.22 | 1075.36
m1 = 0.2351 | 1107.24 | 1097.42 | 1087.6 | 1077.78
m1 = 0.2852 | 1109.64 | 1099.85 | 1090.06 | 1080.29
m1 = 0.3822 | 1114 | 1104.38 | 1094.63 | 1084.97
m1 = 0.5216 | 1120.2 | 1110.59 | 1100.91 | 1091.34
m1 = 0.8153 | 1132.05 | 1122.58 | 1113.1 | 1103.75
